# Test results from patent US9988348B1, “Synthesis and antimicrobial use of a trithiocarbonate derivative” (KING SAUD UNIVERSITY, priority 2017, dated 2018).
# Marks after values point to notes of the source that are not given here.
# Assays:
# [1] = biological effects of compound 4 alone in mice (not infected);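 on daily body weight: compound given twice daily to the uninfected group for 2 weeks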; type: in vivo; set-up: Total Protein Mean ± SE: unit not given here; details: for daily body weight / % change in daily body weight / Food consumption / Mortality / Water consumption: i.v. 12 mg/kg then 6 mg/ml
# Procedure: The experiment was performed in Experimental Animal Care Center (EACC), College of Pharmacy, King Saud University, Riyadh. Fifty Albino male mice, weighing nearly 30±2 gram were used. The mice were arranged in five groups, each including ten mice caged together, given water, and feed ad libitum. […] The group treated with standard drug (fluconazole) was infected intravenously with 0.2 ml of C. albicans suspension (10^6 CFU/mouse) and treated (orally) by 12 mg/kg of fluconazole (loading dose) on the first day followed by 6 mg/ml for 2 weeks.
# The biological parameters included daily body weight (gm), mortality (%), food consumption (g/day/mouse), water consumption (ml/day/mouse), serum glutamic oxaloacetic transaminase [SGOT(AST) (U/L)], serum glutamic-pyruvic transaminase [SGPT(ALT)(U/L)], alkaline phosphatase (U/L), gamma-glutamyl transferase (GGT) (U/L), bilirubin (mg/dl)], cholesterol (mg/dl), triglycerides (mg/dl), high-density lipoprotein (HDL) (mg/dl), very-low-density lipoprotein (VLDL) (mg/dl), low-density lipoprotein (LDL) (mg/dl), lactate dehydrogenase (LDH) (U/L), glucose (mg/dl), total protein (mg/dl), malondialdehyde (MDA) (nmol/g), nonprotein sulfyhydryl (NP-SH) (nmol/g). […] SGOT (AST), SGPT (ALT), ALP, GGT, bilirubin LDH and total protein were estimated using Reflotron Plus Analyzer and Roche kits (Roche Diagnostics GmbH, Mannheim Germany) and United diagnostic kits assay. Hematological tests were performed by Mindray BC-2800VET auto Hematology Analyzer.
# [2] = tested on: MCF-7 human breast cancer cell lines; test: in vitro anti-cancer test; type: cell-based; details: water soluble form, 4 to 0.008 mg/mL
# Procedure: Biological activity of compound 4 (water soluble form) as anticancer in human breast cancer was evaluated according to (Kumar et al. 2014). Roswell Park Memorial Institute (RPMI)-1640 medium (Sigma, USA) were prepared according to manufacturer's guidelines and supplemented fetal bovine serum (10%). To avoid a microbial contamination, a streptomycin and penicillin were added to RPMI-1640. Several concentrations ranging from 4 to 0.008 mg/mL of compound 4 were tested.
# [3] = blood, uninfected mice, i.v. 12 mg/kg then 6 mg/ml for 2 weeks
# [4] = liver tissue, uninfected mice, i.v. 12 mg/kg then 6 mg/ml for 2 weeks
# [5] = serum, uninfected mice, i.v. 12 mg/kg then 6 mg/ml for 2 weeks
compound,measurement,setting,value
"CCOC(=O)CSC(=S)SCC(=O)OCC [Compound 4, diethyl 2,2′-(thiocarbonylbis(sulfanediyl))diacetate]",Eosinophils Mean ± SE,[1]; [3],2.38 ± 0.09%
same,HCT Mean ± SE,[1]; [3],45.9 ± 1.51^a
same,HGB Mean ± SE,[1]; [3],12.4 ± 0.18^a g/dL
same,Lymphocytes Mean ± SE,[1]; [3],4.8 ± 0.09%
same,MCH Mean ± SE,[1]; [3],39.0 ± 1.0 pg
same,MCHC Mean ± SE,[1]; [3],32.6 ± 0.9 g/dL
same,MCV Mean ± SE,[1]; [3],87.31 ± 1.74 fL
same,Monocytes Mean ± SE,[1]; [3],1.15 ± 0.01%
same,Neutrophils Mean ± SE,[1]; [3],33.3 ± 1.1%
same,PLT Mean ± SE,[1]; [3],670.7 ± 15.3 10^3/mm^3
same,RBC Mean ± SE,[1]; [3],9.26 ± 0.1 10^6/mm^3
same,WBC Mean ± SE,[1]; [3],8795 ± 45.9 Cell/mm^3
same,MDA,[1]; [4],0.94 ± 0.03***^a nmol/g
same,NP-SH,[1]; [4],6.88 ± 0.22***^a nmol/g
same,Total Protein,[1]; [4],129.04 ± 2.80**^a g/l
same,side effects on food and water consumption comparing with control group,[1]; mice,no negative side effects
same,Alkaline phosphatase Mean ± SE,"[1]; serum, uninfected mice, 12 mg/kg then 6 mg/ml for 2 weeks",286.62 ± 4.67^a U/L
same,Bilirubin Mean ± SE,[1]; [5],0.57 ± 0.017^a mg/dl
same,Cholesterol Mean ± SE,[1]; [5],78.68 ± 3.2 mg/dL
same,GGT Mean ± SE,[1]; [5],4.40 ± 0.13^a U/L
same,Glucose level Mean ± SE,[1]; [5],96.38 ± 3.62**^a mg/dl
same,HDL Mean ± SE,[1]; [5],41.6 ± 2.1^a mg/dl
same,LDH Mean ± SE,[1]; [5],162.50 ± 1.84^a U/L
same,LDL Mean ± SE,[1]; [5],23.3 ± 3.0 mg/dL
same,SGOT(AST) Mean ± SE,[1]; [5],89.07 ± 3.82 U/L
same,SGPT(ALT) Mean ± SE,[1]; [5],28.67 ± 1.15^a U/L
same,Total Protein Mean ± SE,[1]; [5],7.66 ± 0.18
same,Triglycerides Mean ± SE,[1]; [5],68.5 ± 1.6 mg/dL
same,VLDL Mean ± SE,[1]; [5],13.7 ± 0.3 mg/dL
same,"mortality in the group treated only with the compound, in words",[1]; uninfected mice,close to the control group
same,daily body weight,"[1]; uninfected mice, day 0",20.20 ± 0.38 gm
same,% change in daily body weight,"[1]; uninfected mice, day 1",0.49%
same,Food consumption,"[1]; uninfected mice, day 1",4.2 g/day/mice
same,Mortality,"[1]; uninfected mice, day 1",0%
same,Water consumption,"[1]; uninfected mice, day 1",5.2 g/day/mice
same,daily body weight,"[1]; uninfected mice, day 1",20.30 ± 0.36 gm
same,% change in daily body weight,"[1]; uninfected mice, day 2",9.40%
same,Food consumption,"[1]; uninfected mice, day 2",4.5 g/day/mice
same,Mortality,"[1]; uninfected mice, day 2",0%
same,Water consumption,"[1]; uninfected mice, day 2",5.2 g/day/mice
same,daily body weight,"[1]; uninfected mice, day 2",22.10 ± 0.23 gm
same,% change in daily body weight,"[1]; uninfected mice, day 3",16.83%
same,Food consumption,"[1]; uninfected mice, day 3",4.4 g/day/mice
same,Mortality,"[1]; uninfected mice, day 3",0%
same,Water consumption,"[1]; uninfected mice, day 3",5.4 g/day/mice
same,daily body weight,"[1]; uninfected mice, day 3",23.60 ± 0.33 gm
same,% change in daily body weight,"[1]; uninfected mice, day 4",19.80%
same,Food consumption,"[1]; uninfected mice, day 4",4.5 g/day/mice
same,Mortality,"[1]; uninfected mice, day 4",0%
same,Water consumption,"[1]; uninfected mice, day 4",5.5 g/day/mice
same,daily body weight,"[1]; uninfected mice, day 4",24.20 ± 0.20 gm
same,% change in daily body weight,"[1]; uninfected mice, day 5",23.26%
same,Food consumption,"[1]; uninfected mice, day 5",4.6 g/day/mice
same,Mortality,"[1]; uninfected mice, day 5",0%
same,Water consumption,"[1]; uninfected mice, day 5",5.5 g/day/mice
same,daily body weight,"[1]; uninfected mice, day 5",24.90 ± 0.23 gm
same,% change in daily body weight,"[1]; uninfected mice, day 6",27.22%
same,Food consumption,"[1]; uninfected mice, day 6",4.6 g/day/mice
same,Mortality,"[1]; uninfected mice, day 6",0%
same,Water consumption,"[1]; uninfected mice, day 6",5.7 g/day/mice
same,daily body weight,"[1]; uninfected mice, day 6",25.70 ± 0.21 gm
same,% change in daily body weight,"[1]; uninfected mice, day 7",29.70%
same,Food consumption,"[1]; uninfected mice, day 7",4.8 g/day/mice
same,Mortality,"[1]; uninfected mice, day 7",0%
same,Water consumption,"[1]; uninfected mice, day 7",5.8 g/day/mice
same,daily body weight,"[1]; uninfected mice, day 7",26.20 ± 0.24 gm
same,% change in daily body weight,"[1]; uninfected mice, day 8",32.17%
same,Food consumption,"[1]; uninfected mice, day 8",4.9 g/day/mice
same,Mortality,"[1]; uninfected mice, day 8",0%
same,Water consumption,"[1]; uninfected mice, day 8",5.8 g/day/mice
same,daily body weight,"[1]; uninfected mice, day 8",26.70 ± 0.26 gm
same,% change in daily body weight,"[1]; uninfected mice, day 9",32.67%
same,Food consumption,"[1]; uninfected mice, day 9",4.9 g/day/mice
same,Mortality,"[1]; uninfected mice, day 9",0%
same,Water consumption,"[1]; uninfected mice, day 9",5.9 g/day/mice
same,daily body weight,"[1]; uninfected mice, day 9",26.80 ± 0.29 gm
same,% change in daily body weight,"[1]; uninfected mice, day 10",33.66%
same,Food consumption,"[1]; uninfected mice, day 10",5.1 g/day/mice
same,Mortality,"[1]; uninfected mice, day 10",0%
same,Water consumption,"[1]; uninfected mice, day 10",5.9 g/day/mice
same,daily body weight,"[1]; uninfected mice, day 10",27.00 ± 0.27 gm
same,% change in daily body weight,"[1]; uninfected mice, day 11",35.64%
same,Food consumption,"[1]; uninfected mice, day 11",5.2 g/day/mice
same,Mortality,"[1]; uninfected mice, day 11",0%
same,Water consumption,"[1]; uninfected mice, day 11",6.0 g/day/mice
same,daily body weight,"[1]; uninfected mice, day 11",27.40 ± 0.35 gm
same,% change in daily body weight,"[1]; uninfected mice, day 12",36.96%
same,Food consumption,"[1]; uninfected mice, day 12",6.0 g/day/mice
same,Mortality,"[1]; uninfected mice, day 12",0%
same,Water consumption,"[1]; uninfected mice, day 12",6.11 g/day/mice
same,daily body weight,"[1]; uninfected mice, day 12",27.66 ± 0.28 gm
same,% change in daily body weight,"[1]; uninfected mice, day 13",35.51%
same,Food consumption,"[1]; uninfected mice, day 13",6.0 g/day/mice
same,Mortality,"[1]; uninfected mice, day 13",10%
same,Water consumption,"[1]; uninfected mice, day 13",6.2 g/day/mice
same,daily body weight,"[1]; uninfected mice, day 13",27.77 ± 0.27 gm
same,% change in daily body weight,"[1]; uninfected mice, day 14",38.61%
same,Food consumption,"[1]; uninfected mice, day 14",6.1 g/day/mice
same,Mortality,"[1]; uninfected mice, day 14",10%
same,Water consumption,"[1]; uninfected mice, day 14",6.2 g/day/mice
same,daily body weight,"[1]; uninfected mice, day 14",28.00 ± 0.37 gm
same,% change in daily body weight,"[1]; uninfected mice, day 15",41.70%
same,Food consumption,"[1]; uninfected mice, day 15",6.1 g/day/mice
same,Mortality,"[1]; uninfected mice, day 15",10%
same,Water consumption,"[1]; uninfected mice, day 15",6.3 g/day/mice
same,daily body weight,"[1]; uninfected mice, day 15",28.62 ± 0.41 gm
same,biological activity as anticancer,[2],no biological activity
